Measurements as given in patent publication US20190231668A1, “SKIN WHITENING COMPOSITION CONTAINING MANNOSYLERYTHRITOL LIPID” (AMOREPACIFIC CORPORATION, priority 2016, published 2019).

Test system: B16F10 (melanoma cell) cell line
Assay: Inhibitory effect on melanin production in α-MSH-stimulated melanin pigment producing cells
Type: cell-based, mouse
Conditions: medium with α-MSH (200 nM) and 100 ppm of substance, untreated medium = 100%, α-MSH alone about 270%
Method: The inhibitory effect on melanin production in melanin pigment producing cells by the mannosylerythritol lipid (hereinafter referred to as MEL) was measured. As the cell line and serum, the mouse-derived B16F10 (melanoma cell) cell line purchased from ATCC and FBS (Cat No. 30-2020) were used. The DMEM (Cat No. 11995) required for cell culture and antibiotic-antifungal agent (Cat No. 15240-062) were purchased from Invitrogen company (GIBCO). The cell line was cultured under the conditions of 37° C., 10% CO2. […] Kojic acid was used as a positive control. After the fifth day, 1N NaOH was added and reacted at 60° C. for 2 hours to dissolve the melanin contained in the cells, and then measured the amount of melanin by measuring the absorbance at 405 nm. […] It was confirmed that the expression amount of melanin pigment by B16F10 cells in the medium supplemented with α-MSH and 100 ppm of kojic acid is about 110%, and thus the expression of melanin pigment was inhibited, and it was confirmed that the expression amount of melanin pigment in the medium supplemented with α-MSH and 1 ppm of MEL was about 180%, and the expression amount of melanin pigment in the medium supplemented with α-MSH and 5 ppm of MEL was about 90% and thus the expression of melanin pigment was inhibited.

## O=c1cc(CO)occ1O [kojic acid]
  expression amount of melanin pigment: about 110%
